Columns and labels:
[1] = system: XPCS2BA parental cell line; experiment: Cell viability after IlludinS, parental ERCC3-deficient cell line (CellTiter-Glo); format: cell-based, human
Description: (§1) To understand whether this variant has a deleterious effect on the gene function, we carried out a series of in vitro functional assays. Using a previously well characterized ERCC3 deficient cell line derived from an XP/CS patient (7), phenotype rescue after DNA damage was assessed by cell viability assay. […] Similarly, following UVC irradiation at a dose of 10 J/m^2, 72 hours post-exposure, 42% of the R109X cells survived compared to 63% of WT cells (P<0.0001). At a dose of […], these numbers reduced more drastically for the mutant, showing the same trend as the IlludinS exposure experiment. (FIG. 2D).
(§2) For viability assessment following treatment with IlludinS (Cayman Chemical), cells were seeded into 96 well plates 24 hours prior to treatment. For post-UV viability assays, cells were exposed to the appropriate doses of UV irradiation and subsequently seeded into 96 well plates. Cell viability was measured after 72 hours using the CellTiter-Glo® Luminescent Cell Viability Assay (Promega).

parental HMLE cells = experiment: Cell viability after IlludinS, parental mammary epithelial cells; format: cell-based, human; details: 2 ng/ml IlludinS, 72 hours
Description: (§3) Overexpression of ERCC3 mutant constructs […] physiological levels of protein in a germline heterozygous mutation state within cells. Therefore, using CRISPR/Cas9, we engineered several heterozygous mutations in the mammary epithelial cell line HMLE that mimic the site of the originally discovered recurrent mutation in breast cancer individuals (Table 3, FIG. 4).
as §2

[2] = system: CRISPR edited HMLE cell lines (ERCC3 heterozygous mutants); experiment: Cell viability after IlludinS, CRISPR/Cas9 edited ERCC3 heterozygous mutant cells; format: cell-based, human
Description: as §3, §2

[3] = system: XPCS2BA cells stably overexpressing ERCC3 WT; experiment: Cell viability after IlludinS, cells overexpressing wild-type ERCC3 (CellTiter-Glo); format: cell-based, human
Description: as §1, §2

[4] = system: γ-H2AX in HMLE control and ERCC3 CRISPR edited cell lines; format: cell-based, human; details: 8 ng/ml IlludinS for 1 h; ERCC3 CRISPR mutants vs wild type, P<0.05
Description: To assess the induction and removal of phosphorylated H2AX in response to DNA damage we performed immunostaining and flow cytometric analysis of γ-H2AX positive cells following treatment with IlludinS.
For flow cytometric analysis, 24 h after seeding, cells were either left untreated or were treated with 8 ng/ml IlludinS for 1 h. Treated cells were subsequently washed with PBS and supplemented with drug-free medium. The cells were harvested at different time points after treatment and fixed with 4% PFA for 10 min at RT. Cells were quickly chilled on ice and ice-cold MeOH was added to a final concentration of 90%. The cells were incubated on ice for 30 min and stored at −20° C. For immunostaining the cells were washed twice with PBS/0.5% BSA and incubated with anti phospho-Histone H2A.X (Ser139) Antibody (1:250; Cell Signaling Technology) for 1 h at RT, washed again and incubated with Alexa-488 conjugated secondary antibody for 45 min at RT. For each condition 20.000 cells were recorded and data from two replicate experiments was analyzed using the FlowJo software (V10.1).

[5] = system: XPCS2BA cells stably overexpressing ERCC3 R109X; experiment: Cell viability after IlludinS, cells overexpressing the ERCC3 R109X mutant (CellTiter-Glo); format: cell-based, human
Description: as §1, §2

[6] = system: R109X H-RAS-V12 HMLE cells vs WT H-RAS-V12 HMLE cells; experiment: Cell viability after Irofulven, hRAS-V12 expressing ERCC3 WT vs R109X HMLE cells; format: cell-based, human; details: 72 hours, increasing doses, hRAS-V12 HMLE R109X heterozygous
Description: as §2
(§4) In vitro experiments were performed to compare the effects of Irofulven on cell viability of ERCC3 WT HMLE cells and CRISPR-edited HMLE cells heterozygous for the ERCC3 R109X mutation. These same cell lines were used in Example 1 to assess sensitivity to IlludinS. Cell viability was assessed 72 hours following treatment of the cells with increasing doses of Irofulven. FIG. 11A provides the results in graphical form. Similar experiments were also performed using cells similar to those described above (i.e. that were either ERCC3 WT or R109X) but that also stably expressed mutant hRAS-V12. (These hRAS-V12 cells were used for xenograft generation in the in vivo experiments described below). FIG. 11B provides results showing the effects of Irofulven on cell viability of the +/+WT H-RAS-V12 HMLE cells the heterozygous+/−R109X H-RAS-V12 HMLE cells. The data shown in both FIG. 11A and FIG. 11B represents the mean of three experiments with error bars representing the SEM.

[7] = system: ERCC3 WT HMLE HRAS-V12 tumors; experiment: Mouse xenograft model, ERCC3 WT tumors; format: in vivo, athymic nude mice; details: 3.5 mg/kg or 7 mg/kg IP daily for 5 days per 21-day cycle
Description: (§5) To assess the effect of the ERCC3 R109X mutation on Irolfulven sensitivity in vivo, a tumor xenograft system was generated and used. As described above, ERCC3 WT and ERCC3-mutant (R109X) cells were made in an HMLE HRAS-V12 background. These cells were injected into the flanks of athymic nude mice. The resultant tumors were allowed to grow to a size of about 100 mm^3. Treatment was then started. Either a vehicle control or Irofulven (at a dose of either 3.5 mg/kg or 7 mg/kg) was injected intraperitoneally (IP) daily for 5 consecutive days (the treatment “on” time), followed by a period of 16 days of treatment “off” time—making one 21-day cycle. Treatment cycles were then repeated. This treatment regimen was similar to that employed in several reported human clinical trials of Irofulven. The size of the tumors was measured weekly. […] In the ERCC3 WT xenograft group the average tumor size at treatment initiation was 97.7 mm^3 (74.6-120.3 mm^3). In the ERCC3 R109X xenograft group the average tumor size at treatment initiation was 172.8 mm^3 (101.8-238.6 mm^3). […] Additional experiments are underway to further validate these preliminary findings.

[8] = system: HMLE+/R109X cells vs HMLE+/+ cells; experiment: Cell viability after Irofulven, ERCC3 WT vs R109X heterozygous HMLE cells; format: cell-based, human; details: 72 hours, increasing doses
Description: as §2, §4

[9] = system: ERCC3 expression in ERCC3 mutant tumors; experiment: Real time PCR of ERCC3 transcript in xenograft tumors; format: in vivo, athymic nude mice; details: two treatment cycles of Irofulven
[10] = system: ERCC3 R109X HMLE HRAS-V12 tumors; experiment: Mouse xenograft model, ERCC3 R109X mutant tumors; format: in vivo, athymic nude mice
Description: as §5

Row | Structure (SMILES) | cells survived ([1]; 2 ng/ml IlludinS, 72 hours, XPCS2BA) [%] | cell death ([1]; higher doses of IlludinS, untransfected cells) | cell survival (parental HMLE cells) | cell survival ([2]; 2 ng/ml IlludinS, 72 hours, CRISPR edited HMLE, P<0.0001) | relative cell viability ([2]; 72 hours after exposure to IlludinS, ERCC3 CRISPR clones) | response to IlludinS after stable overexpression of WT ERCC3 (rescue) ([2]; ERCC3 CRISPR cell lines re-expressing WT ERCC3) | cells survived ([3]; 2 ng/ml IlludinS, 72 hours) [%] | cell survival ([3]; 4 ng/ml IlludinS) | reduction in γ-H2AX after DNA damage [4] | cells survived ([5]; 2 ng/ml IlludinS, 72 hours, R109X overexpressing XPCS2BA) [%] | cell death compared to ERCC3 WT ([5]; increasing doses of IlludinS, R109X overexpressing cells) | sensitivity to Irofulven (inhibition of cell viability) vs ERCC3 WT cells [6] | tumor growth [7] | sensitivity to Irofulven (inhibition of cell viability) vs ERCC3 WT cells [8] | ERCC3 expression (relative transcript level) [9] | tumor growth ([10]; 3.5 mg/kg or 7 mg/kg IP daily for 5 days per 21-day cycle) | sensitivity to tumor inhibitory effects compared to ERCC3 WT tumors ([10]; preliminary studies)
1 | CC1=C2C(=C[C@@](C)(CO)[C@@H]2O)C(=O)[C@](C)(O)C12CC2 [IlludinS, Illudin S] | 3 | all died | all the parental HMLE cells survived | significantly reduced survival | substantial reduction in relative cell viability | same response to IlludinS as the WT HMLE cell line | 77 | most of the WT cells survived | significantly lower | 42 | significantly higher cell death |  |  |  |  |  | 
2 | CC1=C(CO)C2=C(C)C3(CC3)[C@@](C)(O)C(=O)C2=C1 [Irofulven, 6-hydroxymethylacylfulvene] |  |  |  |  |  |  |  |  |  |  |  | much more sensitive | significant reduction | much more sensitive | upregulated | significant reduction | may have been more sensitive

Reference: patent publication US20210137850A1, “DIAGNOSIS & TREATMENT OF ERCC3-MUTANT CANCER” (MEMORIAL SLOAN KETTERING CANCER CENTER, priority 2017, published 2021)
